Measurements: patent publication US9062028B2, “Bicyclic nitrogen containing heteroaryl TGR5 receptor modulators” (Bristol-Myers Squibb Company, priority 2011, dated 2015)

molecular target: T1, recombinant human TGR5 (Homo sapiens, UniProt Q8TDU6); assay: cAMP assay (cAMP accumulation, HTRF) in CHOK1 cells stably expressing TGR5; format: cell-based; details: CHOK1 cells stably expressing human TGR5, 30 minutes at RT, 1% DMSO
T1 construct: expressed in transfected cells
T1 sequence (Q8TDU6 1-330): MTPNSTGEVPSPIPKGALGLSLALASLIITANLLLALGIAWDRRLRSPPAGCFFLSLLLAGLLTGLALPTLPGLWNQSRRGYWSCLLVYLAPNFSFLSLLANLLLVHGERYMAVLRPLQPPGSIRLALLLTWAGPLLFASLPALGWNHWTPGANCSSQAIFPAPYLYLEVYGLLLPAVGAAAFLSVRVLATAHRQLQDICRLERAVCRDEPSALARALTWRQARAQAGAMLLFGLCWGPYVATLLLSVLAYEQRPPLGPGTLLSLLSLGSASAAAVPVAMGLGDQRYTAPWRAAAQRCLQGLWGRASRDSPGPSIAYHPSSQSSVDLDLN
Method in brief: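 CHOK1 cells stably expressing TGR5 (text also calls it chimeric human/mouse), 0.4-0.5×10^6 cells/mL in PBS with Ca/Mg and 0.1 mM IBMX, compound 30 min at RT, 1% DMSO. cAMP by HTRF 665/620 interpolated to a standard curve; EC50 from 4-parameter fit as half-maximal increase.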

In order of rising EC50:
1. Cc1c(Cl)cccc1OCCCC(=O)N1CCSc2c(-c3cnn(Cc4cccc(C(=O)O)c4)c3)cccc21 [Example 354, 3-((4-(4-(4-(3-Chloro-2-methylphenoxy)butanoyl)-3,4-dihydro-2H-benzo[b] [1,4]thiazin-8-yl)-1H-pyrazol-1-yl)methyl)benzoic acid]  40 nM
2. Cc1c(Cl)cccc1OCCCC(=O)N1CCSc2c(-c3cnn(Cc4cccc(C(=O)NCCS(=O)(=O)O)c4)c3)cccc21 [Example 564, 2-(3-((4-(4-(4-(3-Chloro-2-methylphenoxy)butanoyl)-3,4-dihydro-2H-benzo[b][1,4]thiazin-8-yl)-1H-pyrazol-1-yl)methyl)benzamido) ethanesulfonic acid]  49 nM
3. Cc1cccc(OCCCC(=O)N2CC3CC3c3c(-c4cnn(Cc5c(F)cc(C(=O)NCCS(=O)(=O)O)cc5Cl)c4)cccc32)c1C (stereo not shown) [Example 69C, 2-(3-Chloro-4-((4-(3-(4-(2,3-dimethylphenoxy)butanoyl)-1a,2,3,7b-tetrahydro-1H-cyclopropa[c]quinolin-7-yl)-1H-pyrazol-1-yl)methyl)-5-fluorobenzamido)ethanesulfonic acid]  58 nM
4. Cc1cccc(OCCCC(=O)N2CCCc3c(-c4cnn(Cc5cccc(C(=O)N6CCC(CO)CC6)c5)c4)cccc32)c1C [Example 836, 4-(2,3-Dimethylphenoxy)-1-(5-(1-(3-(4-(hydroxymethyl)piperidine-1-carbonyl)benzyl)-1H-pyrazol-4-yl)-3,4-dihydroquinolin-1(2H)-yl)butan-1-one]  173 nM
5. Cc1cccc(OCCOC(=O)N2CCSc3c(-c4cnn(Cc5cccc(C(=O)NCCS(=O)(=O)O)c5)c4)cccc32)c1C [Example 597, 2-(3-((4-(4-((2-(2,3-Dimethylphenoxy)ethoxy)carbonyl)-3,4-dihydro-2H-benzo[b][1,4]thiazin-8-yl)-1H-pyrazol-1-yl)methyl)benzamido)ethanesulfonic acid]  173 nM
6. Cc1c(Cl)cccc1OCCCC(=O)N1CCCOc2c(-c3cnn(Cc4cccc(NC(=O)NCC(=O)O)c4)c3)cccc21 [Example 521, 2-(3-(3-((4-(5-(4-(3-Chloro-2-methylphenoxy)butanoyl)-2,3,4,5-tetrahydrobenzo[b] [1,4]oxazepin-9-yl)-1H-pyrazol-1-yl)methyl)phenyl)ureido)acetic acid]  176 nM
7. Cc1c(Cl)cccc1OCCOC(=O)N1C[C@@H]2C[C@@H]2c2c(-c3cnn(Cc4cc(OCCOCC(=O)O)ccc4Cl)c3)cccc21 [Example 448, 2-(2-(4-Chloro-3-((4-((1aR,7bS)-3-((2-(3-chloro-2-methylphenoxy)ethoxy)carbonyl)-1a,2,3,7b-tetrahydro-1H-cyclopropa[c]quinolin-7-yl)-1H-pyrazol-1-yl)methyl)phenoxy)ethoxy)acetic acid]  183 nM
8. [2H]C([2H])(COC(=O)N1CCCOc2c(-c3cnn(Cc4c(F)cc(C(=O)O)cc4Cl)c3)cccc21)Oc1cccc(Cl)c1C [Example 418, 3-Chloro-4-((4-(5-((2-(3-chloro-2-methylphenoxy)-2,2-dideuteroethoxy)carbonyl)-2,3,4,5-tetrahydrobenzo[b][1,4]oxazepin-9-yl)-1H-pyrazol-1-yl)methyl)-5-fluorobenzoic acid]  185 nM
9. Cc1c(Cl)cccc1OCCOC(=O)N1CCSc2c(-c3cnn(Cc4cccc(C(=O)NCCC(=O)O)c4Cl)c3)cccc21 [Example 628, 3-(2-Chloro-3-((4-(4-((2-(3-chloro-2-methylphenoxy)ethoxy)carbonyl)-3,4-dihydro-2H-benzo[b][1,4]thiazin-8-yl)-1H-pyrazol-1-yl)methyl)benzamido)propanoic acid]  195 nM
10. CCOC(=O)CN(CC(=O)OCC)C(=O)c1cccc(Cn2cc(-c3cccc4c3[C@H]3C[C@H]3CN4C(=O)CCCOc3cccc(Cl)c3C)cn2)c1 [Example 896, Diethyl 2,2′-(3-((4-((1aR,7bS)-3-(4-(3-chloro-2-methylphenoxy)butanoyl)-1a,2,3,7b-tetrahydro-1H-cyclopropa[c]quinolin-7-yl)-1H-pyrazol-1-yl)methyl)benzoylazanediyl)diacetate]  198 nM
11. Cc1cccc(OCCOC(=O)N2CCOc3c(-c4cnn(Cc5cccc(C(=O)NCCS(=O)(=O)O)c5)c4)cccc32)c1C [Example 182, 2-(3-((4-(4-((2-(2,3-Dimethylphenoxy)ethoxy)carbonyl)-3,4-dihydro-2H-benzo[b] [1,4]oxazin-8-yl)-1H-pyrazol-1-yl)methyl)benzamido) ethanesulfonic acid]  589 nM
12. Cc1cccc(OCCCC(=O)N2CCCc3c(-c4cccc(COC(=O)NC(C)CC(=O)O)c4)cccc32)c1C (stereo not shown) [Example 275, 3-((3-(1-(4-(2,3-Dimethylphenoxy)butanoyl)-1,2,3,4-tetrahydroquinolin-5-yl)benzyloxy)carbonylamino) butanoic acid]  608 nM
13. Cc1cccc(OCCCC(=O)N2C[C@H]3C[C@H]3c3c(-c4cnn(Cc5cccc(NC(=O)NCCC(=O)O)c5)c4)cccc32)c1C (single isomer, unassigned) [Example 249]  660 nM
14. Cc1c(Cl)cccc1OCCOC(=O)N1CC(O)COc2c(-c3cnn(Cc4c(F)cc(C(=O)O)cc4Cl)c3)cccc21 (stereo not shown) [Example 334, 3-Chloro-4-((4-(5-((2-(3-chloro-2-methylphenoxy)ethoxy)carbonyl)-3-hydroxy-2,3,4,5-tetrahydrobenzo[b][1,4]oxazepin-9-yl)-1H-pyrazol-1-yl)methyl)-5-fluorobenzoic acid]  1260 nM
15. Cc1cccc(OCCCC(=O)N2CCCc3c(-c4ccc(OCc5cccc(C(=O)O)c5)cn4)cccc32)c1C [Example 123, 3-((6-(1-(4-(2,3-Dimethylphenoxy)butanoyl)-1,2,3,4-tetrahydroquinolin-5-yl)pyridin-3-yloxy)methyl)benzoic acid]  1270 nM
16. Cc1cccc(OCCCC(=O)N2CCCc3c(-c4cnn(Cc5cccc(C(=O)N(C)CCS(=O)(=O)O)c5)c4)cccc32)c1C [Example 829, 2-(3-((4-(1-(4-(2,3-Dimethylphenoxy)butanoyl)-1,2,3,4-tetrahydroquinolin-5-yl)-1H-pyrazol-1-yl)methyl)-N-methylbenzamido)ethanesulfonic acid]  1350 nM
17. Cc1cccc(OCCCC(=O)N2CCCc3c(-c4cnn(Cc5cccc(C(=O)N6CCC(C(=O)O)C6)c5)c4)cccc32)c1C (stereo not shown) [Example 859, 1-(3-((4-(1-(4-(2,3-Dimethylphenoxy)butanoyl)-1,2,3,4-tetrahydroquinolin-5-yl)-1H-pyrazol-1-yl)methyl)benzoyl)pyrrolidine-3-carboxylic acid]  1360 nM
18. Cc1cccc(OCCCC(=O)N2CCCOc3c(-c4cnn(Cc5cccc(N(C)C(=O)NCS(=O)(=O)O)c5)c4)cccc32)c1C [Example 526, (3-(3-((4-(5-(4-(2,3-Dimethylphenoxy)butanoyl)-2,3,4,5-tetrahydrobenzo [b][1,4]oxazepin-9-yl)-1H-pyrazol-1-yl)methyl)phenyl)-3-methylureido) methanesulfonic acid]  1500 nM
19. Cc1c(Cl)cccc1OCCCC(=O)N1CCCOc2c(-c3cnn(Cc4ccc(C(=O)N[C@@H](CC(=O)O)C(=O)O)cc4)c3)cccc21 [Example 767, (S)-2-(4-((4-(5-(4-(3-Chloro-2-methylphenoxy)butanoyl)-2,3,4,5-tetrahydrobenzo[b][1,4]oxazepin-9-yl)-1H-pyrazol-1-yl)methyl)benzamido)succinic acid]  1520 nM
20. Cc1c(Cl)cccc1OCCCC(=O)N1CCCOc2c(-c3cnn(Cc4cccc(NS(=O)(=O)c5cccc(C(=O)O)c5)c4)c3)cccc21 [Example 506, 3-(N-(3-((4-(5-(4-(3-Chloro-2-methylphenoxy)butanoyl)-2,3,4,5-tetrahydrobenzo [b][1,4]oxazepin-9-yl)-1H-pyrazol-1-yl)methyl)phenyl)sulfamoyl) benzoic acid]  1610 nM
21. Cc1c(Cl)cccc1Oc1cccc(C(=O)N2CCCOc3c(-c4cnn(Cc5c(F)cc(C(=O)NCCC(=O)O)cc5Cl)c4)cccc32)c1 [Example 815]  2000 nM
22. Cc1c(Cl)cccc1OCCCC(=O)N1CCCc2c(-c3cnn(CC(=O)O)c3)cccc21 [Example 197, 2-(4-(1-(4-(3-Chloro-2-methylphenoxy)butanoyl)-1,2,3,4-tetrahydroquinolin-5-yl)-1H-pyrazol-1-yl)acetic acid]  2150 nM
23. Cc1cccc(OCCCC(=O)N2CCCc3c(-c4cccc(COC(=O)N(CCCS(=O)(=O)O)C5CC5)c4)cccc32)c1C [Example 36, 3-(Cyclopropyl((3-(1-(4-(2,3-dimethylphenoxy)butanoyl)-1,2,3,4-tetrahydroquinolin-5-yl)benzyloxy)carbonyl)amino)propane-1-sulfonic acid]  2910 nM
24. Cc1cccc(OCCCC(=O)N2CCCc3c(-c4cnn(Cc5ccc[n+](C)c5)c4)cccc32)c1C [Example 467, 3-((4-(1-(4-(2,3-Dimethylphenoxy)butanoyl)-1,2,3,4-tetrahydroquinolin-5-yl)-1H-pyrazol-1-yl)methyl)-1-methylpyridinium]  2960 nM
25. Cc1cccc(OCCCC(=O)N2CCCc3c(-c4cccc(COC(=O)N[C@H](Cc5c[nH]cn5)C(=O)O)c4)cccc32)c1C [Example 288, (R)-2-((3-(1-(4-(2,3-Dimethylphenoxy)butanoyl)-1,2,3,4-tetrahydroquinolin-5-yl)benzyloxy)carbonylamino)-3-(1H-imidazol-4-yl)propanoic acid]  3950 nM
